From patent EP4796171A2 (Zealand Pharma A/S, priority 2017, dated 2018) come the findings set out here.

Values joined by “and” are separate entries in the source; they are usually repeats but may differ in a detail not shown here. Equal entries are not always repeated.

For one data set, the target named is T1, human GLP-2 receptors (Homo sapiens, UniProt O95838, D470N).
T1 sequence (O95838 1-553 D470N): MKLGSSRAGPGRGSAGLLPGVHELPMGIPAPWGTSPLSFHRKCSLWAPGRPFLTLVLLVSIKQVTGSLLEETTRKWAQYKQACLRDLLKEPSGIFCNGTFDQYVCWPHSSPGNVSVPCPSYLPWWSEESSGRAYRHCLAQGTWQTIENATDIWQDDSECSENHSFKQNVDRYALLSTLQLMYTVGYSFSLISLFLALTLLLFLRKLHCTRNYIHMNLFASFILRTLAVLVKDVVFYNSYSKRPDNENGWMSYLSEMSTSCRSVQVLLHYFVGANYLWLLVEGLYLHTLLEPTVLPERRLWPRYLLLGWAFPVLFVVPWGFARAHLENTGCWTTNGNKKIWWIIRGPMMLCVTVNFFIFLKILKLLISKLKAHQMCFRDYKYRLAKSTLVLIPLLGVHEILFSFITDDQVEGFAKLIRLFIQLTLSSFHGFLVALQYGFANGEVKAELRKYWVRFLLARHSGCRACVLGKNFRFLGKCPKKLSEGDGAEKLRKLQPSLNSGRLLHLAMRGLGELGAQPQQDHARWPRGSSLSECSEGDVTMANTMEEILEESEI
The experiment in a line: GLP-2 receptor efficacy assay (cAMP AlphaScreen). In kind it is cell-based. An excerpt:
The hGLP2-R was purchased from MRC-geneservice, Babraham, Cambridge as an Image clone: 5363415 (11924-117). For subcloning into a mammalian expression vector, primers for subcloning were obtained from DNA-Technology, Risskov, Denmark. The 5' and 3' primers used for the PCR reaction include terminal restriction sites for cloning and the context of the 5' primer is modified to a Kozak consensus without changing the sequence of the product encoded by the ORF. A standard PCR reaction was run using Image clone 5363415 (11924-117) as a template with the above mentioned primers and Polymerase Herculase II Fusion in a total vol. of 50µl. The generated PCR product was purified using GFX PCR and Gel band purification kit, digested with restriction enzymes and cloned into the mammalian expression vector using Rapid DNA Ligation Kit. Ligation reaction was transformed to XL10 Gold Ultracompetent cells and colonies were picked for DNA production using Endofree Plasmid maxi kit. Subsequent sequence analysis was conducted by MWG Eurofins, Germany.
HEK293 cells were transfected using the Lipofectamine PLUS transfection method. The day before transfection, HEK293 cells were seeded in two T75 flasks at a density of 2 x 10^6 cells / T75 flask in cell culturing medium without antibiotics. On the day of transfection, cells were washed with 1x DPBS and medium was replaced with Optimem to a volume of 5 mL / T75 flask before addition of Lipofectamine-plasmid complexes were added gently and drop wise to the cells in T75 flasks and replaced with growth medium after 3 hours and again to growth medium supplemented with 500µg/mL G418 after 24 hours. After 4 weeks in G418 selection, clones were picked and tested in a functional assay.
The cAMP AlphaScreen® assay from Perkin Elmer was used to quantitate the cAMP response to activation of the GLP2 receptor. […] Table 2: GLP-2R EC50 measurements
A general note: In Alpha technology, singlet oxygen from a donor bead excites a nearby acceptor bead.

The nature of data set [1]: Phase 2 clinical trial, PK profile of ZP1848 and metabolites in SBS patients. The following applies: for Conc.: plasma. In kind it is in vivo, human. The protocol: A phase 2 clinical trial was conducted to i.a. determine the PK profile of ZP1848 and metabolites in human SBS patients.
The study was designed as a randomized, cross-over and double-blinded with three different doses of ZP1848 (10 mg, 1 mg, 0.1 mg) in 16 SBS patients.
The 18 SBS patients (16 patients completed the study) were randomized evenly and in a double-blinded fashion to each of the six cross-over dose level combinations: 10 mg/1 mg, 10 mg/0.1 mg, 1 mg/10 mg, 1 mg/0.1 mg, 0.1 mg/10 mg, 0.1 mg/1 mg of ZP1848. The patients were injected once daily (QD) subcutaneously with the above doses of ZP1848.
Blood samples for PK analysis were collected on several study visits throughout the study period: the study comprised a 1st baseline balance study (4 days), a 1st treatment period (21 days) including a 1st treatment balance study (last 4 days of 1st treatment period), followed by a wash-out period (at least 4 weeks); and a 2nd baseline balance study (4 days), a 2nd treatment period (21 days) including a 2nd treatment balance study (last 4 days of 2nd treatment period) and a follow-up period (at least 4 weeks).
PK sampling was performed at visit 11 (1st treatment, balance study) and visit 17 (second day of 2nd baseline study - after a wash out period), and again at visit 25 (2nd treatment balance study) and at visit 29 (last day of follow-up period).
At day visit 11 and visit 25 a full PK profile in steady state was investigated. PK samples were taken prior to injection of ZP1848, and at the following time points (+/- 10 minutes) after trial product administration: 1h, 2h, 4h, 6h, 8h, 10h, 12h and 24h. Each PK sample contained 2 mL of blood, resulting in a total of […] blood drawn for PK purposes. The plasma sample was immediately stored at -80°C after sampling.
Plasma samples were analyzed after immunoaffinity extraction followed by liquid chromatography mass spectrometry (LC-MS/MS). For each patient plasma concentrations were used for calculation of the pharmacokinetic parameters using the non-compartmental approach in Excel. Plasma terminal elimination half-life (T½) was determined as In(2)/ke where ke is the magnitude of the slope of the log linear regression of the log concentration versus time profile during the terminal phase.

As to “H-HGEGTFSSELATILDALAARDFIAWLIATKITDK-OH [ZP2469]”, the EC50 (usually the midpoint of the concentration-response curve) at human GLP-2 receptors came out at 0.052 nM. Also, at human GLP-2 receptors (in words, relative to ZP1848), the in vitro potency entry is given as “comparable to ZP1848”. In addition, the plasma level result in data set [1] (in words, relative to ZP1848 after administration of ZP1848) is listed as “multiple times higher than that of ZP1848”. Moreover, the Conc. in data set [1] (Day 0 (visit 11 or 25, treatment balance study), ZP1848 SC once daily, individual subjects) was 2.22 nM and 0.556 nM and 3.64 nM and 4.75 nM and 4.66 nM and 4.49 nM and 1.04 nM and 14.7 nM and 6.77 nM and 4.34 nM and 4.94 nM; in data set [1] (Day 28-56 (visit 17 or 29, after wash-out/follow-up), individual subjects), 0.394 nM and 0.0528 nM and 0.0564 nM and 0.288 nM and 0.236 nM and 0.195 nM and 0.133 nM and 0.209 nM and 0.46 nM and 0.116 nM and 0.112 nM. The Half-life in data set [1] (terminal, from Day 0 and wash-out/follow-up concentrations, individual subjects) was 5.2 days and 7.9 days and 8.7 days (2×) and 11 days (2×) and 7.2 days (2×) and 12 days and 9.5 days and 9.6 days.
